Results from ChEMBL document CHEMBL5252527, “An Update on Poly(ADP-ribose)polymerase-1 (PARP-1) Inhibitors: Opportunities and Challenges in Cancer Therapy” (J Med Chem, 2016).

Legend:
[1] = molecular target: Poly [ADP-ribose] polymerase 1 (Mus musculus, UniProt P11103); experiment: Inhibition of mouse recombinant PARP-1 incubated for 60 mins
[2] = molecular target: Poly [ADP-ribose] polymerase 1 (Bos taurus, UniProt P18493); experiment: Inhibition of calf thymus PARP-1
[3] = Inhibition of calf thymus […]; set-up: species or system Bos taurus
[4] = molecular target: T1, Poly [ADP-ribose] polymerase 2 (Homo sapiens, UniProt Q9UGN5); experiment: Inhibition of human PARP-2 incubated for 18 to 20 hrs by scintillation proximity assay
[5] = molecular target: T2, Poly [ADP-ribose] polymerase 1 (Homo sapiens, UniProt P09874); experiment: Inhibition of human PARP-1 using histone as substrate incubated for 16 hrs by ELISA assay
Homo sapiens = species: Homo sapiens; experiment: Selectivity index, ratio of IC50 of human PARP-1 to IC50 of human PARP-2
[6] = molecular target: T1, Poly [ADP-ribose] polymerase 2; experiment: Inhibition of PARP-2 (unknown origin)
[7] = molecular target: T2, Poly [ADP-ribose] polymerase 1; experiment: Inhibition of PARP-1 (unknown origin)
[8] = molecular target: T2, Poly [ADP-ribose] polymerase 1; experiment: Inhibition of PARP-1 (unknown origin) assessed as inhibition constant
U-251 = experiment: Inhibition of human PARP expressed in U-251 cells at 3 uM relative to control; type: cell-based
[9] = molecular target: T2, Poly [ADP-ribose] polymerase 1; experiment: Inhibition of human PARP-1
[10] = Half life in rat; type: ADME; details: in vivo
[11] = Oral bioavailability in rat; type: ADME, organism-based; details: in vivo

T1 sequence (Q9UGN5 whole entry): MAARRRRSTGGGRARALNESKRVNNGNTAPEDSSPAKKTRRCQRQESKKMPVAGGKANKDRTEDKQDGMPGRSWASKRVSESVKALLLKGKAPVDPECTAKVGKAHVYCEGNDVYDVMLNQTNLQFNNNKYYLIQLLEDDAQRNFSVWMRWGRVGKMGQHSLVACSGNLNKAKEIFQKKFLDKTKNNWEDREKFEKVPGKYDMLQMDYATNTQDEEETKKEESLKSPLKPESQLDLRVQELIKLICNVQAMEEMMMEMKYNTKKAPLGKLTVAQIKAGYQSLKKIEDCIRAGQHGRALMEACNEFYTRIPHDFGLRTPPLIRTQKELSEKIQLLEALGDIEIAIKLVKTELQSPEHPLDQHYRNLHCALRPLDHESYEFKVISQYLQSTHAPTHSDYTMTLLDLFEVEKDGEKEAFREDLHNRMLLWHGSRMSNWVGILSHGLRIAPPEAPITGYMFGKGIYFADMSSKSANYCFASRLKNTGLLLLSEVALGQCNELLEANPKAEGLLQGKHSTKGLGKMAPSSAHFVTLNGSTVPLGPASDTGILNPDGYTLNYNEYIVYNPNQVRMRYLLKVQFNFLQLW
T2 sequence (P09874 whole entry): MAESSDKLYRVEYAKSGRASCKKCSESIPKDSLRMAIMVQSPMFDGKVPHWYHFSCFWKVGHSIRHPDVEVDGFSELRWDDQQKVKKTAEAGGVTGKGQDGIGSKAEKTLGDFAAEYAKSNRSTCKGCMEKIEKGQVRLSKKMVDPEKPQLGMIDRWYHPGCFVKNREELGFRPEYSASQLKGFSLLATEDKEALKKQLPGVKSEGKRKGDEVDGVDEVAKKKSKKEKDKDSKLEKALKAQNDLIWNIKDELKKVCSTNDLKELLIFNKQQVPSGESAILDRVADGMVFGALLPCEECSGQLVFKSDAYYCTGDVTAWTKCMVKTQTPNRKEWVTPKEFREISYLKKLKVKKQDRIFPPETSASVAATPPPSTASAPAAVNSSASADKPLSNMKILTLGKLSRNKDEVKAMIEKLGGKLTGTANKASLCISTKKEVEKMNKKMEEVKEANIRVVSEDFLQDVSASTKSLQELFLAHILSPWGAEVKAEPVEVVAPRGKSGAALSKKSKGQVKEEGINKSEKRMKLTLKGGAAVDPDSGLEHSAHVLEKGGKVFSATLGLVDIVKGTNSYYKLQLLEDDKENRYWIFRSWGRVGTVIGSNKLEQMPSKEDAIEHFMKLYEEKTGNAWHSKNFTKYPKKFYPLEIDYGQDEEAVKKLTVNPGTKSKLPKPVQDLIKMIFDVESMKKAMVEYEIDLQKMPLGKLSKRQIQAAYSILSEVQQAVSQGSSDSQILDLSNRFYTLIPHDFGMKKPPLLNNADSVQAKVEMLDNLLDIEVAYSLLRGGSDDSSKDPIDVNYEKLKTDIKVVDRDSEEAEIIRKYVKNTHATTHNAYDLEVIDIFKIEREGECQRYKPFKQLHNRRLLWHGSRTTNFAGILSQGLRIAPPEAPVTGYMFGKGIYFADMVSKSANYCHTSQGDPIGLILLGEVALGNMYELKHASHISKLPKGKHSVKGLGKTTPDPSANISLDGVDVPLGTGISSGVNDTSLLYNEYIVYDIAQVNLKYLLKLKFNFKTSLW
Poly [ADP-ribose] polymerase 1 (Bos taurus, UniProt P18493), sequence (P18493 whole entry): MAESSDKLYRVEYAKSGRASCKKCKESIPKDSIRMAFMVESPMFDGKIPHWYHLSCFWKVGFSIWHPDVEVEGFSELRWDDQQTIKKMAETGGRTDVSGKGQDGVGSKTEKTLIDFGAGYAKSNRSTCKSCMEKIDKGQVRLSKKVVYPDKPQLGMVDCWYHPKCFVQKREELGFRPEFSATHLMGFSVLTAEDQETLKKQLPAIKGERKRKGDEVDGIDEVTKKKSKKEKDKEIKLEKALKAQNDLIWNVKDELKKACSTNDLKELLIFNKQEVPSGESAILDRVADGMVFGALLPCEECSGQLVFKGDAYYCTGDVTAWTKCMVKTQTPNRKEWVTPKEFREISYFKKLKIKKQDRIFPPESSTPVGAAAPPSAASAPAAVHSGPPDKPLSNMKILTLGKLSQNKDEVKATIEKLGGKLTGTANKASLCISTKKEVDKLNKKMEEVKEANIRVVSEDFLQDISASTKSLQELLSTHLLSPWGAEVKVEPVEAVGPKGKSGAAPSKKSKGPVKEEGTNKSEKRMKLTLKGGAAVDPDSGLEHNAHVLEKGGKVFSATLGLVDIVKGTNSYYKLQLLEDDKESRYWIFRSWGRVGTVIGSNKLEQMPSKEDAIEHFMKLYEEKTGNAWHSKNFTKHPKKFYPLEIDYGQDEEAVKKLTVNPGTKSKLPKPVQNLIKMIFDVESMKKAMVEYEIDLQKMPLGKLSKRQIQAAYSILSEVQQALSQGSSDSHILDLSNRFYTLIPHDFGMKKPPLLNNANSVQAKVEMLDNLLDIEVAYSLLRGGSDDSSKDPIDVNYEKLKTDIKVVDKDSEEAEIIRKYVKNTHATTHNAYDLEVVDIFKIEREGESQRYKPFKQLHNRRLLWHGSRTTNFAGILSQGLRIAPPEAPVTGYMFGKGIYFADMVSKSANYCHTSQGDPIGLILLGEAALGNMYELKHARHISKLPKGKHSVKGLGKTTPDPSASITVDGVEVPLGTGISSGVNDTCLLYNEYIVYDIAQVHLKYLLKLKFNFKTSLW
Poly [ADP-ribose] polymerase 1 (Mus musculus, UniProt P11103), sequence (P11103 whole entry): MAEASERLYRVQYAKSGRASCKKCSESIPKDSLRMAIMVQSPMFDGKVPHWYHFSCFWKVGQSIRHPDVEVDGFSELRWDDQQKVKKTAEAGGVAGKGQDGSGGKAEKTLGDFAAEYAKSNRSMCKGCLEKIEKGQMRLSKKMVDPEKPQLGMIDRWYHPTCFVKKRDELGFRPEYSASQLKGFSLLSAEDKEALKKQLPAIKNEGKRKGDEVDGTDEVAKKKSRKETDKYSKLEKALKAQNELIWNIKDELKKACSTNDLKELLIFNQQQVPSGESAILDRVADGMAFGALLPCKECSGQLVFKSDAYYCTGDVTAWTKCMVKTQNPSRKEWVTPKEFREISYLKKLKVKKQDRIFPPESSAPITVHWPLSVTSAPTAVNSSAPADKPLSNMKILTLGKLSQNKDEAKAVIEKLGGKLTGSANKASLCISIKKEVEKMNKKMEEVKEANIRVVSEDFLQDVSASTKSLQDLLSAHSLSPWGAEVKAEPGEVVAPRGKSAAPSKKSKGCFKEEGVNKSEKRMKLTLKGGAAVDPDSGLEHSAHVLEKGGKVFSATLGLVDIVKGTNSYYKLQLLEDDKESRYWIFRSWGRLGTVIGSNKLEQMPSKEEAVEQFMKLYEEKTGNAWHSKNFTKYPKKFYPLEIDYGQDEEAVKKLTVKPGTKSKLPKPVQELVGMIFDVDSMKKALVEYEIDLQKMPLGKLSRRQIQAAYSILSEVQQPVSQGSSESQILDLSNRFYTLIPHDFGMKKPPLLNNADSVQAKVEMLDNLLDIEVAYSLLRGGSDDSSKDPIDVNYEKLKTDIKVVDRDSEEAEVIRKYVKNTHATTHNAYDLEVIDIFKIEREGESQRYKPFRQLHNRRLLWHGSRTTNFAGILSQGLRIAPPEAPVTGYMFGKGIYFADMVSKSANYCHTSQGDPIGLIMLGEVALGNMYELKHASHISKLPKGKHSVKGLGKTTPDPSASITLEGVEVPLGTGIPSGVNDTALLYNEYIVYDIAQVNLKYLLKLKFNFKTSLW

Q: With O=C(Nc1cccc2c(=O)[nH]ccc12)c1ccccc1 as the compound, how does the IC50 [1] read?
A: Its IC50 is 1500 nM.

Q: What does the source list for Cc1cccc2c(=O)[nH]c(CCCN3CC=C(c4ccc(F)cc4)CC3)nc12?
A: IC50 [2]: 16 nM; IC50 [3]: 167 nM

Q: With Cn1cccc1/C=C1\C(=O)NC(=O)c2ccccc21 as the compound, how does the IC50 [4] read?
A: Its IC50 is 4000 nM.

Q: Which IC50 [5] does the source give for CC(C)(C)[Si](C)(C)OCCCN1CCN(C(=O)c2cc(Cn3c(=O)[nH]c(=O)c4ccccc43)ccc2F)CC1=O here?
A: Its IC50 is 1.29 nM.

Q: What about the Ratio IC50 (Homo sapiens) of the same compound?
A: The Ratio IC50 was 8.

Q: Which results are given for COc1cccc2[nH]c3c4c(c5c(c3c12)C(=O)N(CN1CCN(C)CC1)C5=O)CCC4 [CEP-9722]?
A: IC50 [6]: 6 nM; IC50 [7]: 20 nM

Q: For O=c1[nH]nc2c3c(cccc13)Oc1ccc(CN3CCC(O)CC3)cc1-2 [E-7016], which Ki [8] is on record?
A: The Ki was 50 nM.

Q: And the inhibition (U-251)?
A: Its inhibition is 84%.

Q: With NC(=O)c1ccc(I)c([N+](=O)[O-])c1 [INIPARIB] as the compound, how does the IC50 [9] read?
A: Its IC50 is 100000 nM.

Q: With C[C@]12CCCN1CC1=NNC(=O)c3cc(F)cc4[nH]c2c1c34 [PAMIPARIB] as the compound, how does the IC50 [6] read?
A: The IC50 was 0.11 nM.

Q: With Cn1ncnc1[C@H]1c2n[nH]c(=O)c3cc(F)cc(c23)N[C@@H]1c1ccc(F)cc1 [TALAZOPARIB] as the compound, how does the t1/2 [10] read?
A: Its t1/2 is 40 h.

Q: And the bioavailability [11]?
A: Its bioavailability is over 40%.
